According to ChEMBL document CHEMBL5303573, “Mapping human microbiome drug metabolism by gut bacteria and their genes” (Nature, 2019):

Key:
[1] = The drug is tested on Collinsella intestinalis strain: DSM13280 for biotransformation. The drug concentrations were measured before and after a 12-h incubation by liquid-chromatography-coupled mass spectrometry (LC–MS); details: 2 µM
[2] = The drug is tested on Clostridium hathewayi strain: DSM13479 for biotransformation. The drug concentrations were measured before and after a 12-h incubation by liquid-chromatography-coupled mass spectrometry (LC–MS); details: hungatella hathewayi, 2 µM
[3] = The drug is tested on Clostridium spiroforme strain: DSM1552 for biotransformation. The drug concentrations were measured before and after a 12-h incubation by liquid-chromatography-coupled mass spectrometry (LC–MS); details: thomasclavelia spiroformis, 2 µM
[4] = The drug is tested on Coprococcus comes strain: ATCC27758 for biotransformation. The drug concentrations were measured before and after a 12-h incubation by liquid-chromatography-coupled mass spectrometry (LC–MS); assay type: ADME; design: dose 2 uM, timepoint 0 vs 12 hours; details: 2 µM
[5] = bacteroides fragilis, 12 h, 2 µM
Description: The drug is tested on Bacteroides fragilis strain: NCTC 9343 for biotransformation. The drug concentrations were measured before and after a 12-h incubation by liquid-chromatography-coupled mass spectrometry (LC–MS)

[6] = bacteroides stercoris, 12 h, 2 µM
Description: The drug is tested on Bacteroides stercoris strain: ATCC43183 for biotransformation. The drug concentrations were measured before and after a 12-h incubation by liquid-chromatography-coupled mass spectrometry (LC–MS)

[7] = enterocloster bolteae, 12 h, 2 µM
Description: The drug is tested on Clostridium bolteae strain: ATCCBAA-613 for biotransformation. The drug concentrations were measured before and after a 12-h incubation by liquid-chromatography-coupled mass spectrometry (LC–MS)

[8] = roseburia intestinalis, 12 h, 2 µM
Description: The drug is tested on Roseburia intestinalis strain: L1-82 for biotransformation. The drug concentrations were measured before and after a 12-h incubation by liquid-chromatography-coupled mass spectrometry (LC–MS)

[9] = The drug is tested on Alistipes indistinctus strain: DSM22520 for biotransformation. The drug concentrations were measured before and after a 12-h incubation by liquid-chromatography-coupled mass spectrometry (LC–MS); details: 2 µM
[10] = molecular target: T1, Acyltransferase 3 domain-containing protein (Phocaeicola dorei, UniProt B6W2J3); assay: (§1) The drug is tested on Bacteroides dorei strain: DSM17855 for biotransformation. The drug concentrations were measured before and after a 12-h incubation by liquid-chromatography-coupled mass spectrometry (LC–MS); assay type: ADME; design: dose 2 uM; details: 2 µM
T1 sequence (B6W2J3 whole entry): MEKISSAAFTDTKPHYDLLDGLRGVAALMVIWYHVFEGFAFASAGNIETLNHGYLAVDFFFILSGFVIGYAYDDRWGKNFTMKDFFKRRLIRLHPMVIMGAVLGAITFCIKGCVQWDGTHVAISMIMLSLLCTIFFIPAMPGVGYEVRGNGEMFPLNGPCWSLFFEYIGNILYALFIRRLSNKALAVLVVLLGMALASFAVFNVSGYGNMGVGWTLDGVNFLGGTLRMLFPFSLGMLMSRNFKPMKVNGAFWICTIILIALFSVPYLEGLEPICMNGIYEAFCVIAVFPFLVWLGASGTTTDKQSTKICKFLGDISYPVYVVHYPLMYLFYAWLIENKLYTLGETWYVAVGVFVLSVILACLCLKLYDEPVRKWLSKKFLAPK

Esterase = molecular target: T2, Esterase (Phocaeicola dorei, UniProt B6W2J6); assay: as §1; assay type: ADME; design: dose 2 uM; details: 2 µM
T2 sequence (B6W2J6 whole entry): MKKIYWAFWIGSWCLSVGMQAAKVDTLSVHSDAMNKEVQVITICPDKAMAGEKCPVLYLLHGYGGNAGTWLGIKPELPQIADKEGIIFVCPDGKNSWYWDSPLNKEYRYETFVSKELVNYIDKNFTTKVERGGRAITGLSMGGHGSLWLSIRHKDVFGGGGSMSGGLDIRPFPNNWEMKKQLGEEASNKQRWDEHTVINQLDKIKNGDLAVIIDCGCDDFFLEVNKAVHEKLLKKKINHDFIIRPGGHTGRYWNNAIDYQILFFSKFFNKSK

[11] = molecular target: T3, Nitroreductase domain-containing protein (Phocaeicola dorei, UniProt B6W3P3); assay: as §1; assay type: ADME; design: dose 2 uM; details: 2 µM
T3 sequence (B6W3P3 whole entry): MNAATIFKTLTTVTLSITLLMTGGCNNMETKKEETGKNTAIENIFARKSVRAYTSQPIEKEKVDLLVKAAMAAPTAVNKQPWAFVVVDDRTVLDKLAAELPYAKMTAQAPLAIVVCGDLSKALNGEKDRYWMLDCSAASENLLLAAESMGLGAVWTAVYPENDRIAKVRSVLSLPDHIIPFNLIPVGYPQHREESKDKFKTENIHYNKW

[12] = molecular target: T4, Steroid 5-alpha reductase C-terminal domain-containing protein (Phocaeicola dorei, UniProt B6W0N3); assay: as §1; assay type: ADME; design: dose 2 uM; details: 2 µM
T4 sequence (B6W0N3 whole entry): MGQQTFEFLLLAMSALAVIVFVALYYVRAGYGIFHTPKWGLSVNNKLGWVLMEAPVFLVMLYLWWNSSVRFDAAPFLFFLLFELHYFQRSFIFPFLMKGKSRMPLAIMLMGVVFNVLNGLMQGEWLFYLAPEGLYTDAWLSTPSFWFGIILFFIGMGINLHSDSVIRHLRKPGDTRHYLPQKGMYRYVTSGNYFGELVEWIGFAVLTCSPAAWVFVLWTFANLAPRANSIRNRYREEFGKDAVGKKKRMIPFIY

Structure (SMILES)	Bacterial Biotransformation [1]	Bacterial Biotransformation [2]	Bacterial Biotransformation [3]	Bacterial Biotransformation [4]	Bacterial Biotransformation [5]	Bacterial Biotransformation [6]	Bacterial Biotransformation [7]	Bacterial Biotransformation [8]	Bacterial Biotransformation [9]	Bacterial Biotransformation [10]	Bacterial Biotransformation (Esterase)	Bacterial Biotransformation [11]	Bacterial Biotransformation [12]
c1ccc([C@H]2CN3CCSC3=N2)cc1 [LEVAMISOLE]	Compound NOT metabolized	Compound NOT metabolized	Compound NOT metabolized	Compound metabolized	Compound metabolized	Compound metabolized	Compound metabolized	Compound NOT metabolized					
CCCC(=O)Nc1ccc(OCC(O)CNC(C)C)c(C(C)=O)c1 (centres undefined) [ACEBUTOLOL]	Compound NOT metabolized	Compound NOT metabolized	Compound NOT metabolized	Compound NOT metabolized	Compound NOT metabolized	Compound NOT metabolized	Compound NOT metabolized	Compound NOT metabolized					
CC(C)NCC(O)COc1ccc(CCOCC2CC2)cc1 (centres undefined) [BETAXOLOL]	Compound NOT metabolized	Compound NOT metabolized	Compound NOT metabolized	Compound NOT metabolized	Compound NOT metabolized	Compound NOT metabolized	Compound NOT metabolized	Compound NOT metabolized	Compound NOT metabolized				
CCOc1cc(CC(=O)N[C@@H](CC(C)C)c2ccccc2N2CCCCC2)ccc1C(=O)O [REPAGLINIDE]	Compound NOT metabolized	Compound NOT metabolized	Compound NOT metabolized	Compound NOT metabolized		Compound metabolized	Compound metabolized	Compound NOT metabolized	Compound NOT metabolized				
CN/C(=N/CCSCc1nc[nH]c1C)NC#N [CIMETIDINE]	Compound NOT metabolized	Compound NOT metabolized	Compound NOT metabolized	Compound NOT metabolized	Compound NOT metabolized	Compound NOT metabolized	Compound NOT metabolized	Compound NOT metabolized	Compound NOT metabolized				
O=C(O)COCCN1CCN(C(c2ccccc2)c2ccc(Cl)cc2)CC1 (centres undefined) [CETIRIZINE]		Compound NOT metabolized		Compound NOT metabolized	Compound metabolized	Compound metabolized	Compound NOT metabolized	Compound NOT metabolized	Compound metabolized				
Clc1cccc(Cl)c1N=C1NCCN1 [CLONIDINE]	Compound NOT metabolized	Compound NOT metabolized	Compound NOT metabolized	Compound NOT metabolized	Compound metabolized	Compound metabolized	Compound NOT metabolized	Compound NOT metabolized					
CN1CCN(C2=Nc3cc(Cl)ccc3Nc3ccccc32)CC1 [CLOZAPINE]	Compound NOT metabolized	Compound NOT metabolized	Compound NOT metabolized	Compound NOT metabolized	Compound NOT metabolized	Compound NOT metabolized	Compound NOT metabolized						
COc1ccccc1OCCNCC(O)COc1cccc2[nH]c3ccccc3c12 (centres undefined) [CARVEDILOL]	Compound NOT metabolized	Compound metabolized	Compound metabolized	Compound NOT metabolized	Compound metabolized	Compound metabolized	Compound NOT metabolized	Compound NOT metabolized	Compound metabolized				
CC(NC(C)(C)C)C(=O)c1cccc(Cl)c1 (centres undefined) [BUPROPION]	Compound NOT metabolized	Compound NOT metabolized	Compound NOT metabolized	Compound NOT metabolized	Compound NOT metabolized	Compound NOT metabolized	Compound NOT metabolized		Compound NOT metabolized				
CC(=O)OCC(=O)[C@@]12N=C(C)O[C@@H]1C[C@H]1[C@@H]3CCC4=CC(=O)C=C[C@]4(C)[C@H]3[C@@H](O)C[C@@]12C [DEFLAZACORT]	Compound metabolized			Compound metabolized	Compound metabolized	Compound metabolized	Compound metabolized	Compound metabolized	Compound metabolized	Compound NOT metabolized	Compound NOT metabolized	Compound NOT metabolized	Compound NOT metabolized
CN(C)CCC=C1c2ccccc2C=Cc2ccccc21 [CYCLOBENZAPRINE]	Compound NOT metabolized	Compound NOT metabolized	Compound NOT metabolized	Compound NOT metabolized	Compound NOT metabolized	Compound NOT metabolized	Compound NOT metabolized						
